# Measurements taken from patent US20080008724A1 (Statens Serum Institute, priority 2006, published 2008).
# B1: TB10.4: protein expressed by M. tuberculosis, recombinant (SEQ ID NO: 2) (protein, listed as Mycobacterium tuberculosis)
# chain: MSQIMYNYPAMLGHAGDMAGYAGTLQSLGAEIAVEQAALQSAWQGDTGITYQAWQAQWNQAMEDLVRAYHAMSSTHEANTMAMMARDTAEAAKWGGX
# modifications: X not resolved here
# System: IFN-γ producing T cells
# Experiment: IFN-γ secretion (ELISA) of blood cells from mice vaccinated with TB10.4 antigens, stimulated with TB10.4 peptides
# Format: in vivo
# Conditions: for specific T-cell response (IFN-γ secretion, ELISA) after vaccination with the individual peptide: mice vaccinated three times with individual TB10.4 peptide in DDA/TDB, cells stimulated with 0.5 μg/ml of the same peptide
Molecule,"specific T-cell response (IFN-γ secretion, ELISA) after vaccination with the individual peptide","T-cell recognition of TB10.4 peptides P1-P9 (IFN-γ secretion, ELISA) after vaccination (mice vaccinated 3 times at 2-week intervals in DDA/TDB, blood cells two weeks after final vaccination, stimulated with 0.5 μg/ml of individual peptides)"
TB10.4-P1: amino acids 1 to 18 of SEQ ID NO: 2 (MSQIMYNYPAMLGHAGDM; listed as Mycobacterium tuberculosis),induced a specific T-cell response,–
TB10.4-P3: amino acids 21 to 38 of SEQ ID NO: 2 (YAGTLQSLGAEIAVEQAA; listed as Mycobacterium tuberculosis),induced a specific T-cell response,–
B1,–,mainly induced P3 specific T cells
